Series [1] relates to COC(=O)[C@@H](N)CNC(=O)Nc1ccc([N+](=O)[O-])cc1. Briefly: Kinetic constant acting as donor substrate for gamma-GGT (Glutamyltranspeptidase)-mediated transpeptidation was determined; Inactive at 2 mM with 33.8 mU of GGT in rat kidney. The format is tissue-based.
For series [2], the system named is COC(=O)[C@@H](N)COC(=O)Nc1ccc([N+](=O)[O-])cc1. Briefly: (§1) Kinetic constant acting as donor substrate for gamma-GGT (Glutamyltranspeptidase)-mediated transpeptidation was determined; in rat kidney; Inactive at 2 mM with 33.8 mU of GGT.
In series [3] the test system is N[C@@H](CNC(=O)Nc1ccc([N+](=O)[O-])cc1)C(=O)O. The series is described as §1.
Series [4] shares this test system. Briefly: Kinetic constant acting as acceptor substrate for gamma-GGT (Glutamyltranspeptidase)-mediated transpeptidation was determined in rat kidney; Solubility- Insoluble for concentration greater than 15 mM.
Series [5] concerns COC(=O)[C@@H](N)CCC(=O)Nc1ccc([N+](=O)[O-])cc1. Briefly: (§2) Kinetic constant acting as donor substrate for GGT (gamma-Glutamyltranspeptidase)-mediated transpeptidation was determined in rat kidney. It is filed as tissue-based.
Series [6] has as its system N[C@@H](CCC(=O)Nc1ccc([N+](=O)[O-])cc1)C(=O)O. Described as §2. The format is tissue-based.
Series [7] concerns COC(=O)[C@@H](N)CO. Briefly: Kinetic constant acting as donor substrate for gamma-GGT (Glutamyltranspeptidase)-mediated transpeptidation was determined in rat kidney; Not applicable.
The test system of series [8] is COC(=O)[C@@H](N)CCC(=O)Nc1ccc([N+](=O)[O-])cc1. The experiment in a line: (§3) Kinetic constant acting as acceptor substrate for gamma-GGT (Glutamyltranspeptidase)-mediated transpeptidation was determined in rat kidney.
Series [9] deals with COC(=O)[C@@H](N)CNC(=O)Nc1ccc([N+](=O)[O-])cc1. The description is as §3.
Series [10] has as its system COC(=O)[C@@H](N)COC(=O)Nc1ccc([N+](=O)[O-])cc1. Described as §3.
Series [11] has as its system COC(=O)[C@@H](N)CO. The description is as §3.
The test system of series [12] is N[C@@H](CCC(=O)Nc1ccc([N+](=O)[O-])cc1)C(=O)O. Described as §3.
The target of series [13] is Glutathione hydrolase 1 proenzyme (Rattus norvegicus) (UniProt P07314). Briefly: Kinetic constant acting as acceptor substrate for gamma-GGT (Glutamyltranspeptidase)-mediated transpeptidation was determined in rat kidney (units are 10e3/min). The format is tissue-based.
Chain of Glutathione hydrolase 1 proenzyme (Rattus norvegicus) (P07314 1-379 limits assumed): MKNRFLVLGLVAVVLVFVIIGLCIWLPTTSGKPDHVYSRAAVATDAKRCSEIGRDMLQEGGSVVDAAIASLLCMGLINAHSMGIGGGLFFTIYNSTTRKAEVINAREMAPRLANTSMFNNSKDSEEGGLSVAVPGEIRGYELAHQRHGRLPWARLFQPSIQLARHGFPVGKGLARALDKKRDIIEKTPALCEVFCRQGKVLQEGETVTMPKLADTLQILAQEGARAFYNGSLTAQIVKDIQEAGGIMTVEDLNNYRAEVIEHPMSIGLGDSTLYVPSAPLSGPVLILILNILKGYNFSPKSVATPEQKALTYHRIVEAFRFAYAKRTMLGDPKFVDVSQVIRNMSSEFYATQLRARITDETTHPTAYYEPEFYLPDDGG
Chain of Glutathione hydrolase 1 proenzyme (Rattus norvegicus) (P07314 380-568 limits assumed): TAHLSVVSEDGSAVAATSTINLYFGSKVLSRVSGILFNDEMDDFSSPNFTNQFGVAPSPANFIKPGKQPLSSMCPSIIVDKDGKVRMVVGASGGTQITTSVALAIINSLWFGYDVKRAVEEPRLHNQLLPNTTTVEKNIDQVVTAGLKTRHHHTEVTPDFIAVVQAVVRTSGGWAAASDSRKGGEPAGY
Series [14] shares this target. Briefly: Kinetic constant acting as donor substrate for gamma-GGT (Glutamyltranspeptidase)-mediated transpeptidation was determined in rat kidney (units are 10e3/min); Inactive at 2 mM with 33.8 mU of GGT. It is filed as tissue-based.
Series [15] can be described thus: Ratio of kinetic constant (Kcat/KM) acting as acceptor substrate for gamma-GGT (Glutamyltranspeptidase)-mediated transpeptidation was determined in rat kidney. Also on record: unit not given here.
Series [16] in a line: Ratio of kinetic constant (Kcat/KM) acting as donor substrate for gamma-GGT (Glutamyltranspeptidase)-mediated transpeptidation was determined in rat kidney; Inactive at 2 mM with 33.8 mU of GGT.
Series [17] deals with Glutathione hydrolase 1 proenzyme (Rattus norvegicus) (UniProt P07314). Briefly: Kinetic constant acting as donor substrate for gamma-GGT (Glutamyltranspeptidase)-mediated transpeptidation was determined in rat kidney (units are 10e3/min); Not applicable. It is filed as tissue-based.
A short description of series [18]: Ratio of kinetic constant (Kcat/KM) acting as donor substrate for gamma-GGT (Glutamyltranspeptidase)-mediated transpeptidation was determined in rat kidney; Not applicable.
Series [19] has as its target Glutathione hydrolase 1 proenzyme (Rattus norvegicus) (UniProt P07314). Briefly: Kinetic constant acting as donor substrate for gamma-GGT (Glutamyltranspeptidase)-mediated transpeptidation was determined in rat kidney (units are 10e3/min). The format is tissue-based.
The nature of series [20]: Ratio of kinetic constant (Kcat/KM) acting as donor substrate for gamma-GGT (Glutamyltranspeptidase)-mediated transpeptidation was determined in rat kidney.
In series [21] the target is Glutathione hydrolase 1 proenzyme (Rattus norvegicus) (UniProt P07314). Briefly: Kinetic constant acting as donor substrate for gamma-GGT (Glutamyltranspeptidase)-mediated transpeptidation was determined (units are 10e3/min); Inactive at 2 mM with 33.8 mU of GGT in rat kidney. The format is tissue-based.
Series [22] is described as follows: Ratio of kinetic constant (Kcat/KM) acting as donor substrate for gamma-GGT (Glutamyltranspeptidase)-mediated transpeptidation was determined in rat kidney; Inactive at 2 mM with 33.8 mU of GGT in rat kidney.
The target in series [23] is Glutathione hydrolase 1 proenzyme (Rattus norvegicus) (UniProt P07314). Briefly: Kinetic constant acting as acceptor substrate for gamma-GGT (Glutamyltranspeptidase)-mediated transpeptidation was determined in rat kidney (units are 10e3/min); Solubility- Insoluble for concentration greater than 15 mM. The format is tissue-based.
Series [24] in a line: Ratio of kinetic constant (Kcat/KM) acting as acceptor substrate for gamma-GGT (Glutamyltranspeptidase)-mediated transpeptidation was determined in rat kidney; Solubility- Insoluble for concentration greater than 15 mM.
The target in series [25] is Glutathione hydrolase 1 proenzyme (Rattus norvegicus) (UniProt P07314). The experiment in a line: Compound was tested for the mixed non-competitive inhibition of rat kidney gamma-glutamyltranspeptidase (gamma-GGT).

Activity calls are given as the source filed them. The calls are words filed in the database; no cut-off is given here.

Chain of Glutathione hydrolase 1 proenzyme (Rattus norvegicus), P07314 (P07314 whole entry): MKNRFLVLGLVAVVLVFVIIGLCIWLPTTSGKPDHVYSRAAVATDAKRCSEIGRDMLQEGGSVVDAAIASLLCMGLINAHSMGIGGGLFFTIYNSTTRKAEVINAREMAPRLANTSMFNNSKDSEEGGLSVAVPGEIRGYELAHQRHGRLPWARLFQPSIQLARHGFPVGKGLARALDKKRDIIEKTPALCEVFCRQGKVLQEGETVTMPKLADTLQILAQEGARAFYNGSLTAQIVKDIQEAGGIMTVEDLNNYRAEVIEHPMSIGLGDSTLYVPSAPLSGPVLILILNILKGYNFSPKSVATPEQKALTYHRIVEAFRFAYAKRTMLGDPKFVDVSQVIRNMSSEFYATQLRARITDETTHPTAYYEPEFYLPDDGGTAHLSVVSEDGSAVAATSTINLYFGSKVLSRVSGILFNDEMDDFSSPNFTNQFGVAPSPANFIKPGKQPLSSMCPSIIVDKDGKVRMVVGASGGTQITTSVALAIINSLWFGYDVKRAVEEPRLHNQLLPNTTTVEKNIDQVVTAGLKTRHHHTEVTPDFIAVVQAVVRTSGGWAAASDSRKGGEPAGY

“Glutathione hydrolase 1 proenzyme (Rattus norvegicus), P07314”: the Michaelis-Menten constant (Km) result in series [1] is “Not Active”; in [2] it was “Not Active”; in [3], “Not Active”; in series [4] it was “Insoluble”; in [5] it was 5.7 mM; in [6], 0.47 mM. The Km entry was “Not Active” in the series with COC(=O)[C@@H](N)CO [7]; 6 mM in [8]; 4 mM in series [9]; 1.5 mM in series [10]; 34 mM with COC(=O)[C@@H](N)CO [11]; 6.3 mM in [12].
In series [13], `COC(=O)[C@@H](N)COC(=O)Nc1ccc([N+](=O)[O-])cc1` yielded a k cat of 80 s⁻¹. Besides, the k cat entry in series [14] is “inactive”. Also, in series [15], the Ratio was found to be 3e+06. Further, the Ratio entry in series [16] is “inactive”.
In series [13], `COC(=O)[C@@H](N)CO` came in with a k cat of 21.7 s⁻¹. In series [17], the k cat entry is “inactive”. For the same compound, the Ratio in series [15] is 38000. Moreover, the Ratio entry in [18] is “inactive”.
`COC(=O)[C@@H](N)CCC(=O)Nc1ccc([N+](=O)[O-])cc1`: the k cat came to 53.3 s⁻¹ in series [13] and 25 s⁻¹ in series [19]. Also, the Ratio in series [15] is 580000; in series [20], 270000.
For the compound `N[C@@H](CCC(=O)Nc1ccc([N+](=O)[O-])cc1)C(=O)O`, the results for the k cat in series [13] and in series [19] were 267 s⁻¹ and 1.15 s⁻¹, respectively. Moreover, the results for the Ratio in series [15] and in series [20] were 2.5e+06 and 1.5e+08, respectively.
`COC(=O)[C@@H](N)CNC(=O)Nc1ccc([N+](=O)[O-])cc1` registered a k cat in series [13] of 102 s⁻¹. Besides, the k cat result in [21] was “inactive”. For the same compound, in series [15], the Ratio worked out at 1.4e+06. The Ratio result in [22] was “inactive”.
Consider `N[C@@H](CNC(=O)Nc1ccc([N+](=O)[O-])cc1)C(=O)O`, for which, in series [23], the k cat entry was “Insoluble”. Also, the k cat entry in series [14] is “inactive”. Besides, in series [24], the Ratio entry is listed as “Insoluble”. In addition, the Ratio entry in [16] is “inactive”. In series [25], this compound registered a Ki' uncomp of 1700 µM.

One may read the Km as the substrate concentration at which the rate is half of its maximum.

Values taken from ChEMBL document CHEMBL1136669, “Synthesis of aza and oxaglutamyl-p-nitroanilide derivatives and their kinetic studies with gamma-glutamyltranspeptidase” (Bioorg Med Chem Lett, 2003).
